# Assay results taken from ChEMBL document CHEMBL1121791, “Computer-assisted structure-activity studies of chemical carcinogens. Aromatic amines” (J Med Chem, 1981).
# Calls of active or inactive are those of the source. The calls are words filed in the database; no cut-off is given here.
# How the values were obtained:
# Type in all cases: functional, organism-based
# [1] = test system: Rattus norvegicus; assay: Compound was tested for carcinogenic activity on ear duct after oral administration of the compound; na denotes data not available.
# [2] = test system: Rattus norvegicus; assay: Carcinogenic activity on other sites after subcutaneous administration
# [3] = test system: Rattus norvegicus; assay: Compound was tested for carcinogenic activity on liver after subcutaneous administration of the compound; + denotes carcinogenic activity
# [4] = test system: Rattus norvegicus; assay: Carcinogenic activity on all sites after subcutaneous administration
# [5] = test system: Rattus norvegicus; assay: Carcinogenic activity on all sites after intraperitoneal administration
# [6] = test system: Rattus norvegicus; assay: Carcinogenic activity on breast after intraperitoneal administration
# [7] = test system: Rattus norvegicus; assay: Compound was tested for carcinogenic activity on other sites after intraperitoneal administration of the compound; + denotes carcinogenic activity.
# [8] = test system: Rattus norvegicus; assay: Carcinogenic activity on breast after oral administration of the compound
# [9] = test system: Rattus norvegicus; assay: Carcinogenic activity on all sites after oral administration
# [10] = test system: Rattus norvegicus; assay: Compound was tested for carcinogenic activity on ear duct after oral administration of the compound; + denotes carcinogenic activity.
# [11] = test system: Rattus norvegicus; assay: Carcinogenic activity on other sites after oral administration
# [12] = test system: Rattus norvegicus; assay: Carcinogenic activity on mixed data after oral administration
# [13] = test system: Rattus norvegicus; assay: Carcinogenic activity on liver after oral administration of the compound
# [14] = test system: Rattus norvegicus; assay: Carcinogenic activity after oral administration
# [15] = test system: Rattus norvegicus; assay: Tested for carcinogenic activity on breast after oral administration of the compound; - denotes non carcinogenic activity.
# [16] = test system: Rattus norvegicus; assay: Carcinogenic activity on ear duct after oral administration of the compound; - denotes non carcinogenic activity.
# [17] = test system: Rattus norvegicus; assay: Compound was tested for carcinogenic activity on mixed data after various routes administration of the compound; + denotes carcinogenic activity.
# [18] = test system: Rattus norvegicus; assay: Compound was tested for carcinogenic activity on liver after various routes administration of the compound; + denotes carcinogenic activity.
# [19] = test system: Rattus norvegicus; assay: Compound was tested for carcinogenic activity on other sites after various routes administration of the compound; + denotes carcinogenic activity.
# [20] = test system: Rattus norvegicus; assay: Compound was tested for carcinogenic activity on breast after various routes administration of the compound; + denotes carcinogenic activity.
# [21] = test system: Rattus norvegicus; assay: Compound was tested for carcinogenic activity on ear duct after various routes administration of the compound; + denotes carcinogenic activity.
# [22] = test system: Rattus norvegicus; assay: Compound was tested for carcinogenic various routes subcutaneous administration of the compound; + denotes carcinogenic activity.
# [23] = test system: Rattus norvegicus; assay: Compound was tested for carcinogenic activity on mixed data after oral administration of the compound; + denotes four or five active sites.
# [24] = test system: Rattus norvegicus; assay: Carcinogenic activity on ear duct after oral administration
# [25] = test system: Rattus norvegicus; assay: Carcinogenic activity on liver after oral administration
# [26] = test system: Rattus norvegicus; assay: Compound was tested for carcinogenic activity on ear duct after oral administration of the compound; na denotes not available.
# [27] = test system: Rattus norvegicus; assay: Compound was tested for carcinogenic activity on all sites after subcutaneous administration of the compound; + denotes carcinogenic activity.
# [28] = test system: Rattus norvegicus; assay: Carcinogenic activity on ear duct after subcutaneous administration
# [29] = test system: Rattus norvegicus; assay: Compound was tested for carcinogenic activity on all sites after subcutaneous administration of the compound; + denotes carcinogenic activity
# [30] = test system: Rattus norvegicus; assay: Compound was tested for carcinogenic activity on other sites after subcutaneous administration of the compound; + denotes carcinogenic activity
# [31] = test system: Rattus norvegicus; assay: Compound was tested for carcinogenic activity on mixed data after various routes administration of the compound; + denotes carcinogenic activity
# [32] = test system: Rattus norvegicus; assay: Compound was tested for carcinogenic activity on all sites after various routes administration of the compound; + denotes carcinogenic activity.
# [33] = test system: Rattus norvegicus; assay: Compound was tested for carcinogenic activity on mixed data after various routes administration of the compound; + denotes four or five active sites
# [34] = test system: Rattus norvegicus; assay: Compound was tested for carcinogenic activity on all sites after topical administration of the compound; + denotes carcinogenic activity.
# [35] = test system: Rattus norvegicus; assay: Compound was tested for carcinogenic activity on other sites after topical administration of the compound; + denotes carcinogenic activity.
# [36] = test system: Rattus norvegicus; assay: Compound was tested for carcinogenic activity on breast after topical administration of the compound; + denotes carcinogenic activity.
# [37] = test system: Rattus norvegicus; assay: Compound was tested for carcinogenic activity on liver after oral administration of the compound; na denotes data not available.
compound,measurement,setting,value
COc1cccc(-c2cccc(OC)c2N)c1N,Activity,[1],inactive
Nc1ccc(-c2ccc(F)cc2)cc1,Activity,[2],Carcinogenic activity
same,Activity,[3],Carcinogenic activity
same,Activity,[4],Carcinogenic activity
O=S(=O)(c1ccccc1)N(O)c1ccc2c(c1)Cc1ccccc1-2,Activity,[5],Carcinogenic activity
same,Activity,[6],Carcinogenic activity
same,Activity,[7],Carcinogenic activity
ONc1ccc2ccccc2c1,Activity,[5],Carcinogenic activity
same,Activity,[7],Carcinogenic activity
O=C(c1ccccc1)N(O)c1ccc2c(c1)Cc1ccccc1-2,Activity,[5],Carcinogenic activity
same,Activity,[6],Carcinogenic activity
same,Activity,[7],Carcinogenic activity
CN(C)c1ccc(-c2ccccc2)cc1,Activity,[8],Carcinogenic activity
same,Activity,[9],Carcinogenic activity
same,Activity,[10],Carcinogenic activity
same,Activity,[11],Carcinogenic activity
same,Activity,[12],Carcinogenic activity
Nc1ccc2ccccc2c1,Activity,[13],inactive
same,Activity,[9],inactive
same,Activity,[14],inactive
same,Activity,[12],inactive
same,Activity,[15],inactive
same,Activity,[16],inactive
Nc1ccc2c(c1)Cc1ccccc1-2,Activity,[17],Carcinogenic activity
same,Activity,[18],Carcinogenic activity
same,Activity,[19],Carcinogenic activity
same,Activity,[20],Carcinogenic activity
same,Activity,[21],Carcinogenic activity
same,Activity,[22],Carcinogenic activity
CC(=O)Nc1ccc2[nH]c3ccccc3c2c1,Activity,[13],inactive
same,Activity,[9],inactive
same,Activity,[14],inactive
same,Activity,[12],inactive
same,Activity,[15],inactive
same,Activity,[16],inactive
CC(=O)Nc1ccc(-c2ccccc2)cc1,Activity,[8],Carcinogenic activity
same,Activity,[23],Carcinogenic activity
same,Activity,[9],Carcinogenic activity
same,Activity,[24],Carcinogenic activity
same,Activity,[11],Carcinogenic activity
CC(=O)Nc1ccc2c(c1)C(=O)c1ccccc1-2,Activity,[8],Carcinogenic activity
same,Activity,[1],inactive
same,Activity,[9],Carcinogenic activity
same,Activity,[25],Carcinogenic activity
COc1c(N)ccc2c1Cc1ccccc1-2,Activity,[26],inactive
same,Activity,[9],Carcinogenic activity
same,Activity,[25],Carcinogenic activity
same,Activity,[11],Carcinogenic activity
CC(=O)Nc1ccc(-c2ccc(NC(C)=O)cc2C)cc1,Activity,[8],Carcinogenic activity
same,Activity,[23],Carcinogenic activity
same,Activity,[9],Carcinogenic activity
same,Activity,[24],Carcinogenic activity
same,Activity,[11],Carcinogenic activity
CCN(CC)c1ccc(/C=C/c2ccccc2)cc1,Activity,[27],Carcinogenic activity
same,Activity,[28],Carcinogenic activity
Cc1cccc(-c2ccc(N)cc2C)c1,Activity,[29],Carcinogenic activity
same,Activity,[30],Carcinogenic activity
CC(=O)N(O)c1ccc2c(c1)Cc1ccccc1-2,Activity,[31],Carcinogenic activity
same,Activity,[18],Carcinogenic activity
same,Activity,[19],Carcinogenic activity
same,Activity,[20],Carcinogenic activity
same,Activity,[32],Carcinogenic activity
same,Activity,[21],Carcinogenic activity
CC(=O)Nc1ccc2c(c1)Cc1ccccc1-2,Activity,[18],Carcinogenic activity
same,Activity,[19],Carcinogenic activity
same,Activity,[20],Carcinogenic activity
same,Activity,[33],Carcinogenic activity
same,Activity,[32],Carcinogenic activity
same,Activity,[21],Carcinogenic activity
Nc1ccc2cc3ccccc3cc2c1,Activity,[34],Carcinogenic activity
same,Activity,[35],Carcinogenic activity
same,Activity,[36],Carcinogenic activity
Cc1ccc(C(=O)Nc2ccc(S(=O)(=O)O)c3cc(S(=O)(=O)O)cc(S(=O)(=O)O)c23)cc1NC(=O)c1cccc(NC(=O)Nc2cccc(C(=O)Nc3cc(C(=O)Nc4ccc(S(=O)(=O)O)c5cc(S(=O)(=O)O)cc(S(=O)(=O)O)c45)ccc3C)c2)c1,Activity,[9],Active
same,Activity,[25],Active
same,Activity,[11],Active
same,Activity,[15],inactive
same,Activity,[16],inactive
Nc1ccc(Cc2ccc(N)cc2)cc1,Activity,[37],inactive
